According to US20080219973A1, “Pharmaceutical Composition Having Inhibitory Effect on Overproduction and Accumulation of Extracellular Matrix” (TEIJIN LIMITED, priority 1998, published 2008):

Assays:
Type in all cases: cell-based
rat mesangium cells [1] = assay: Suppressive activity of galectin-3 on the cellular death of rat mesangium cells (MTS tetrazolium conversion); conditions: 50 μg/ml galectin-3; presence and absence of 0.4 ng/ml TGF-β; day 1-4; FIG. 3
Protocol: Rat mesangium cells were separated from Sprague-Dawley rats according to the method of Striker et al. (Striker, G. E., et al., Lab. Invest. (1985) 53; 123-128). The separated rat mesangium cells were cultured at 37° C. in the presence of 5% CO2 in the wells of a 96-well plate using an essential medium (DMEM/F12 (1:1) culture medium containing 60 μg/ml penicillin, 100 μg/ml streptomycin, manufactured by Gibco BRL) supplemented with 10% fetal bovine serum. After culturing to semi-confluence, the cultured rat mesangium cells were washed with the essential medium, cultured for 2 days in the essential medium supplemented with 0.1% bovine serum albumin (Sigma), and then were further cultured for 1 to 4 days in the essential medium supplemented with 0.1% bovine serum albumin (Sigma) containing 0 or 50 μg/ml galectin-3 and 0 or 0.4 ng/ml TGF-β. On day 1, 2, 3, and 4 after the addition of galectin-3 and TGF-β, the amount of the cultured rat mesangium cells that survived in their respective wells were measured using as an index the conversion from MTS tetrazolium (Cell Titer 96 Aqueous one solution manufactured by Promega) to formazan by the living cells.

rat mesangium cells [2] = assay: Promoting effect of galectin-3 on collagen type IV production by mesangium cells (sandwich ELISA); conditions: 10 or 30 μg/ml galectin-3; 0-1.6 ng/ml TGF-β; day 3; FIG. 4
Protocol: Rat mesangium cells were separated in a similar manner to that of Example 3. The separated mesangium cells were cultured at 37° C. in the presence of 5% CO2 in the wells of a 96-well plate using an essential medium (DMEM/F12 (1:1) culture medium containing 60 μg/ml penicillin, 100 μg/ml streptomycin, manufactured by Gibco BRL) supplemented with 10% fetal bovine serum. After culturing to confluence, the cultured rat mesangium cells were washed with the essential medium, cultured for 1 to 2 days in the essential medium supplemented with 0.1% bovine serum albumin (Sigma), and then were further cultured for 3 days in the essential medium supplemented with 0.1% bovine serum albumin (Sigma) containing 0, 10 or 30 μg/ml galectin-3 and 0, 0.1, 0.4 or 1.6 ng/ml TGF-β. On day 3 after the addition of galectin-3 and TGF-β, the amount of type IV collagen accumulated in the culture liquid was measured using a sandwich ELISA method that employed a goat anti-type IV collagen antibody as the immobilized antibody and a biotin-labeled goat anti-type IV collagen antibody (Chemicon) as the primary antibody. The amount of type IV collagen in the culture liquid of each well was normalized by dividing it by the amount of the living cells in each well determined in a similar manner to that described in Example 3.

galectin-3 = galectin-3 (Homo sapiens, UniProt P17931); assay: Inhibition by galectin-3-binding inhibiting sugar of galectin-3-promoted collagen type IV production by rat mesangium cells; conditions: 0.4 μg/ml galectin-3, 0.25-2 mM LNFP-I, day 2, FIG. 6
Protocol: Rat mesangium cells were separated in a similar manner to that described in Example 3. The separated rat mesangium cells were cultured at 37° C. in the presence of 5% CO2 in the wells of a 96-well plate using an essential medium (DMEM/F12 (1:1) culture medium containing 60 μg/ml penicillin, 100 μg/ml streptomycin, manufactured by Gibco BRL) supplemented with 10% fetal bovine serum. […] On day 2 after the addition of galectin-3 and LNFP-I, the amount of type IV collagen accumulated in the culture liquid of each well was measured using a sandwich ELISA method that employed a goat anti-type IV collagen antibody (Chemicon) as an immobilized antibody and a biotin-labeled goat anti-type IV collagen antibody (Chemicon) as a primary antibody. The amount of type IV collagen in the culture medium of each well was normalized by dividing it by the amount of the living cells in each well determined in a similar manner to that described in Example 4.

galectin-3, sequence (P17931 whole entry, species assumed): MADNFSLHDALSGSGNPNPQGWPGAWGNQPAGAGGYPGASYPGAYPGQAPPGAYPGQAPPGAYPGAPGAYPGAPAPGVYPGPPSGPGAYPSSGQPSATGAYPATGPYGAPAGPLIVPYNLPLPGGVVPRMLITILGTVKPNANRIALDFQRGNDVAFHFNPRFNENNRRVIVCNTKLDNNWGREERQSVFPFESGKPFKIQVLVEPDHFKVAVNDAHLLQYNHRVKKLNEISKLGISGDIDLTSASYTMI

With “galectin-3: protein of about 30 Kd belonging to the family of β-galactoside binding protein; a lectin” the “cellular death of the rat mesangium cells (amount of surviving cells)” value (rat mesangium cells [1]) was “suppress the cellular death” and the “production and/or accumulation of type IV collagen in culture liquid, normalized to living cells” value (rat mesangium cells [2]) was “promotes the production and/or the accumulation of type IV collagen”.

For lacto-n-fucopentaose I, the “suppression of galectin-3-promoted production and/or accumulation of type IV collagen” value (galectin-3) was “suppresses the promotion of the production and/or the accumulation of type IV collagen”.
